Reference: US6191282A, “Substituted 5-membered ring heterocycles comprising a bicyclic or tricyclic group their preparation and their use” (Hoechst Marion Roussel, priority 1993, dated 2001)
pIC50: −log10 of the molar value. Where two headings read alike, the source gives them in different places.

Tested on: gel-filtered human thrombocytes
Test: Inhibition of the aggregation of gel-filtered human thrombocytes following stimulation with ADP or thrombin (Test method 1)
Format: cell-based
Conditions: 1 mg/ml fibrinogen, 37° C., GFP from 2-4 donors
Protocol: As a functional test, measurement is made of the inhibition of the aggregation of gel-filtered human thrombocytes, following stimulation with ADP or thrombin, by the compounds according to the invention.
For this purpose, human thrombocytes were isolated from platelet-rich plasma (PRP) by gel filtration on Sepharose 2 B. The resulting suspension of gel-filtered platelets (GFP), which contained 3×10^8 platelets/ml, was activated in the presence of 1 mg/ml of fibrinogen either with 10 μM ADP or with 0.1 U/ml thrombin, and stirred in an aggregometer (PAP 4, Biodata, Hatboro, Penna., USA) at 37° C. and at 1000 revolutions per minute. The maximum increase in the translucency is taken as a measure of the aggregation. The test substances were added to the GFP at 37° C. and 2 min before activating with ADP or thrombin.

[1] = Homo sapiens, ADP-stimulated (10 μM ADP), read-out: IC50, inhibition of thrombocyte aggregation, ADP-stimulated
[2] = Homo sapiens, Thrombin-stimulated (0.1 U/ml thrombin), read-out: IC50, inhibition of thrombocyte aggregation, Thrombin-stimulated

Structure (SMILES)	pIC50 [1]	pIC50 [2]	pIC50 (ADP-stimulated (10 μM ADP), read-out: IC50, inhibition of thrombocyte aggregation, ADP-stimulated)	pIC50 (Thrombin-stimulated (0.1 U/ml thrombin), read-out: IC50, inhibition of thrombocyte aggregation, Thrombin-stimulated)
CCN1C(=O)N(CC(=O)NC(CC(=O)O)c2ccccc2)C(=O)C1(C)c1ccc(C(=N)N)cc1 (racemic) [Example 52, (R,S)-3-(((R,S)-4-(4-(Aminoiminomethyl)phenyl)-3-ethyl-4-methyl-2,5-dioxoimidazolidin-1-yl)acetylamino)-3-phenylpropionic acid]	6.30	6.40		
CC1(c2ccc(C(=N)N)cc2)NC(=O)N(CC(=O)NC(CC(=O)O)c2ccc3c(c2)OCO3)C1=O (racemic) [Example 67, (R,S)-3-(((R,S)-4-(4-(aminoiminomethyl)phenyl)-4-methyl-2,5-dioxoimidazolidin-1-yl)acetylamino)-3-(3,4-methylenedioxyphenyl)propionic acid]	7.10	6.70		
CCCCS(=O)(=O)NC(CNC(=O)CN1C(=O)N(C)C(C)(c2ccc(C(=N)N)cc2)C1=O)C(=O)O (racemic) [Example 33, (R,S)-3-(((R,S)-4-(4-(Aminoiminomethyl)phenyl)-3,4-dimethyl-2,5-dioxoimidazolidin-1-yl)acetylamino)-2-butylsulphonylaminopropionic acid]	6.30	6.70		
CC1(c2ccc(NC(=N)N)cc2)NC(=O)N(CC(=O)N[C@@H](CC(=O)O)C(=O)N[C@H](C(=O)O)c2ccccc2)C1=O (stereo partly drawn) [Example 10, ((R,S)-4-(4-Guanidinophenyl)-4-methyl-2,5-dioxoimidazolidin-1-yl)acetyl-L-aspartyl-L-phenylglycine]	6.82	7.22		
CC1(c2ccc(CN)cc2)NC(=O)N(CC(=O)N[C@@H](CC(=O)O)C(=O)N[C@H](C(=O)O)c2ccccc2)C1=O (stereo partly drawn) [Example 8, ((R,S)-4-(4-(Aminomethyl)phenyl)-4-methyl-2,5-dioxoimidazolidin-1-yl)acetyl-L-aspartyl-L-phenylglycine]	6.82	7.00		
CC1(c2ccc(C(=N)N)cc2)NC(=O)N(CC(=O)NC[C@H](NC(=O)OCc2ccccc2)C(=O)O)C1=O (stereo partly drawn) [Example 6, 3-(((R,S)-4-(4-(Aminoiminomethyl)phenyl)-4-methyl-2,5-dioxoimidazolidin-1-yl)acetylamino)-2-benzyloxycarbonylaminopropionic acid]	5.60	6.10		
N=C(N)c1ccc(CC2NC(=O)N(CC(=O)NC[C@H](NC(=O)OCc3ccccc3)C(=O)O)C2=O)cc1 (stereo partly drawn) [Example 9, 3-(((R,S)-4-(4-(Aminoiminomethyl)benzyl)-2,5-dioxoimidazolidin-1-yl)acetylamino)-2-benzyloxycarbonylaminopropionic acid]	6.00	6.30		

Now from value to compound:

pIC50 [1]	pIC50 [2]	pIC50 (ADP-stimulated (10 μM ADP), read-out: IC50, inhibition of thrombocyte aggregation, ADP-stimulated)	pIC50 (Thrombin-stimulated (0.1 U/ml thrombin), read-out: IC50, inhibition of thrombocyte aggregation, Thrombin-stimulated)	Structure (SMILES)
		4.30	4.40	CC1(c2ccc(C(=N)N)cc2)NC(=O)N(CC(=O)N[C@H](CC(=O)O)c2ccccc2)C1=O (single isomer, unassigned) [Example 59, (R)-3-(((S or R)-4-(4-(aminoiminomethyl)phenyl)-4-methyl-2,5-dioxoimidazolidin-1-yl)acetylamino)-3-phenylpropionic acid]
6.70	6.70			CC1(c2ccc(C(=N)N)cc2)NC(=O)N(CC(=O)NC(CC(=O)O)c2ccc(O)cc2)C1=O (racemic) [Example 45, (R,S)-3-(((R,S)-4-(4-(Aminoiminomethyl)phenyl)-4-methyl-2,5-dioxoimidazolidin-1-yl)acetylamino)-3-(4-hydroxyphenyl)priopionic acid]
6.70	6.82			COc1cc(C(CC(=O)O)NC(=O)CN2C(=O)NC(C)(c3ccc(C(=N)N)cc3)C2=O)ccc1O (racemic) [Example 36, (R,S)-3-(((R,S)-4-(4-(Aminoiminomethyl)phenyl)-4-methyl-2,5-dioxoimidazolidin-1-yl)acetylamino)-3-(4-hydroxy-3-methoxyphenyl)propionic acid]
6.30	6.30			CC1(c2ccc(C(=N)N)cc2)NC(=O)N(CC(=O)NC(CC(=O)O)c2cccc(Oc3ccccc3)c2)C1=O (racemic) [Example 43, (R,S)-3-(((R,S)-4-(4-(Aminoiminomethyl)phenyl)-4-methyl-2,5-dioxoimidazolidin-1-yl)acetylamino)-3-(3-phenoxyphenyl)propionic acid]
